Source: publication PMC11395232, “Aquaporin-3a Dysfunction Impairs Osmoadaptation in Post-Activated Marine Fish Spermatozoa” (International Journal of Molecular Sciences, 2024)

Assays:
human AQP3 (HsAQP3) = target: T1, human AQP3 (HsAQP3) (Homo sapiens, UniProt Q92482); experiment: oocyte swelling assay, osmotic water permeability (Pf); type: cell-based
T1 construct: cDNA heterologously expressed in Xenopus laevis oocytes (10 ng cRNA)
T1 sequence (Q92482 1-292): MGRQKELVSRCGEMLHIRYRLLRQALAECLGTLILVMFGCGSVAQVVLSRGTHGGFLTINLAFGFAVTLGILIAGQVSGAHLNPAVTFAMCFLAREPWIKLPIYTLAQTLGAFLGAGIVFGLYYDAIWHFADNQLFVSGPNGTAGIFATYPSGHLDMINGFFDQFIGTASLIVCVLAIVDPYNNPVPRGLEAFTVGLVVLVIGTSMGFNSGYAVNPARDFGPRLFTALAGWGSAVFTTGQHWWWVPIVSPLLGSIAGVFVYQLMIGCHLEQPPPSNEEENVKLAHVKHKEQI

Aqp3a (SaAqp3a) = target: T2, Aqp3a (SaAqp3a) (Sparus aurata, UniProt A0A671Y259); experiment: as above; type: cell-based
T2 construct: cDNA heterologously expressed in Xenopus laevis oocytes (10 ng cRNA); calculated monomer mass 33 kDa
T2 sequence (A0A671Y259 1-302): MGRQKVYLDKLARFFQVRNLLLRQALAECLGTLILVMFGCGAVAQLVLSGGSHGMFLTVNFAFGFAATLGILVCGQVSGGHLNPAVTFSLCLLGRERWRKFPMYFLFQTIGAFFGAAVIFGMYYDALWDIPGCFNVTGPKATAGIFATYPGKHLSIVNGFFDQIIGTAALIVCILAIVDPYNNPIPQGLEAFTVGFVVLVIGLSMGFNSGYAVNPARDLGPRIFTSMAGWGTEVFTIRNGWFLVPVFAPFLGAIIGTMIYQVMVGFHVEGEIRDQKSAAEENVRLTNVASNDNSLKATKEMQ

O=C(Nc1csc([N+](=O)[O-])c1)Nc1c(Cl)cccc1Cl [DFP00173]
inhibition at 10 µM (human AQP3 (HsAQP3)): 66 ± 4%
inhibition at 10 µM (Aqp3a (SaAqp3a)): 76 ± 4%
